We go through twelve molecules from patent publication US12552783B2, “Modulators of proteolysis and associated methods of use” (Arvinas Operations, Inc., priority 2018, dated 2026).

This test deals with KRas (Homo sapiens, UniProt P01116, G12C). Nature of the test: KRas degradation in NCI-H2030 cells by Western blot, normalized to GAPDH (data of Table 14). More on the design: host or cells: NCI-H2030. The note with it: for Percent Degradation at Indicated Concentration (μM): H2030; for Dmax: NCI-H2030. Type of test: cell-based. Summed up:
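After a day without serum, the G12C-homozygous cells received each compound at 0.3, 1 and 3 μM, with VHL-based degraders left for 24 h and other compounds for 72 h. DC50 is the concentration giving half-maximal degradation and DMax the maximal degradation, both taken from KRas levels normalized to GAPDH.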
In general terms: In western blotting, separated proteins are transferred to a membrane and probed.

For orientation: Dmax means the largest share of the target that was removed. High values mean a fuller loss of target, low ones a partial loss of target. `C=CC(=O)N1CCN(c2nc(NCCC(=O)N(C)CCOCCNC(=O)c3ccc(NC(=O)[C@@H]4N[C@@H](CC(C)(C)C)[C@](C#N)(c5ccc(Cl)cc5F)[C@H]4c4cccc(Cl)c4F)c(OC)c3)nc3c(F)c(-c4c(O)cccc4F)c(Cl)cc23)CC1` (atropisomer, axis not shown) [compound 307, (2R,3S,4R,5S)-N-(4-((2-(2-(3-((4-(4-acryloylpiperazin-1-yl)-6-chloro-8-fluoro-7-((S)-2-fluoro-6-hydroxyphenyl)quinazolin-2-yl)amino)-N-methylpropanamido)ethoxy)eth-yl)carbamoyl)-2-methoxyphenyl)-3-(3-chloro-2-fluorophenyl)-4-(4-chloro-2-fluorophenyl)-4-cyano-5-neopentylpyrrolidine-2-carboxamide] registered a maximal degradation (Dmax) of at most 35%. Besides, where the note is “0.3 μM”, the “Percent Degradation at Indicated Concentration (μM)” value is “C (Percent Degradation: C ≤ 35)”. Besides, where the note is “1 μM”, the “Percent Degradation at Indicated Concentration (μM)” value is on record as “C (Percent Degradation: C ≤ 35)”. Moreover, the “Percent Degradation at Indicated Concentration (μM)” value (3 μM) is “C (Percent Degradation: C ≤ 35)”.

In turn, `C=CC(=O)N1CCN(c2nc(NCCC(=O)N(C)CCOCCOCCOCCNC(=O)c3ccc(NC(=O)[C@@H]4N[C@@H](CC(C)(C)C)[C@](C#N)(c5ccc(Cl)cc5F)[C@H]4c4cccc(Cl)c4F)c(OC)c3)nc3c(F)c(-c4c(O)cccc4F)c(Cl)cc23)CC1` (atropisomer, axis not shown) [compound 311, (2R,3S,4R,5S)-N-(4-((15-((4-(4-acryloylpiperazin-1-yl)-6-chloro-8-fluoro-7-((S)-2-fluoro-6-hydroxyphenyl)quinazolin-2-yl)amino)-12-methyl-13-oxo-3,6,9-trioxa-12-azapentadecyl)carbamoyl)-2-methoxyphenyl)-3-(3-chloro-2-fluorophenyl)-4-(4-chloro-2-fluorophenyl)-4-cyano-5-neopentylpyrrolidine-2-carboxamide] came in with a Dmax of at most 35%. In addition, the “Percent Degradation at Indicated Concentration (μM)” value (0.3 μM) is “C (Percent Degradation: C ≤ 35)”. In addition, the “Percent Degradation at Indicated Concentration (μM)” value (1 μM) is listed as “C (Percent Degradation: C ≤ 35)”. Moreover, the “Percent Degradation at Indicated Concentration (μM)” value (3 μM) is on record as “C (Percent Degradation: C ≤ 35)”.

With `C=CC(=O)N1CCN(c2nc(NCCC(=O)N(C)CCOCCOCCOCCOCC(=O)N[C@H](C(=O)N3C[C@H](O)C[C@H]3C(=O)N[C@@H](C)c3ccc(-c4scnc4C)cc3)C(C)(C)C)nc3c(F)c(-c4cc(O)cc5ccccc45)c(Cl)cc23)CC1` (racemic) [compound 195, (2RS,4SR)-1-((RS)-21-((4-(4-acryloylpiperazin-1-yl)-6-chloro-8-fluoro-7-((RS)-3-hydroxynaphthalen-1-yl)quinazolin-2-yl)amino)-2-(tert-butyl)-18-methyl-4,19-dioxo-6,9,12,15-tetraoxa-3,18-diazahenicosanoyl)-4-hydroxy-N-((RS)-1-(4-(4-methylthiazol-5-yl)phenyl)ethyl)pyrrolidine-2-carboxamide], the “Percent Degradation at Indicated Concentration (μM)” value (3 μM) is reported as “C (Percent Degradation: C ≤ 35)”.

In turn, `CN(CCOCCOc1ccc2c(c1)C(=O)N(C1CCC(=O)NC1=O)C2=O)C(=O)CCNc1nc(N2CCN(C(N)=O)CC2)c2cc(Cl)c(-c3cc(O)cc4ccccc34)c(F)c2n1` (stereo not drawn) [compound 27, 4-(6-chloro-2-((3-((2-(2-((2-(2,6-dioxopiperidin-3-yl)-1,3-dioxoisoindolin-5-yl)oxy)ethoxy)ethyl)(methyl)amino)-3-oxopropyl)amino)-8-fluoro-7-(3-hydroxynaphthalen-1-yl)quinazolin-4-yl)piperazine-1-carboxamide] displayed a Dmax of at most 35%. Also, the “Percent Degradation at Indicated Concentration (μM)” value (0.3 μM) was “C (Percent Degradation: C ≤ 35)”. For the setting “1 μM”, the “Percent Degradation at Indicated Concentration (μM)” value is on record as “C (Percent Degradation: C ≤ 35)”. The “Percent Degradation at Indicated Concentration (μM)” value (3 μM) is listed as “C (Percent Degradation: C ≤ 35)”.

As to `CN(CCOCCNc1cccc2c1C(=O)N(C1CCC(=O)NC1=O)C2=O)C(=O)CCNc1nc(N2CCN(C(N)=O)CC2)c2cc(Cl)c(-c3cc(O)cc4ccccc34)c(F)c2n1` (stereo not drawn) [compound 32, 4-(6-chloro-2-((3-((2-(2-((2-(2,6-dioxopiperidin-3-yl)-1,3-dioxoisoindolin-4-yl)amino)ethoxy)ethyl)(methyl)amino)-3-oxopropyl)amino)-8-fluoro-7-(3-hydroxynaphthalen-1-yl)quinazolin-4-yl)piperazine-1-carboxamide], the Dmax was at most 35%. In addition, the “Percent Degradation at Indicated Concentration (μM)” value (0.3 μM) was “C (Percent Degradation: C ≤ 35)”. For the same molecule, under “1 μM”, the “Percent Degradation at Indicated Concentration (μM)” value was “C (Percent Degradation: C ≤ 35)”. Besides, the “Percent Degradation at Indicated Concentration (μM)” value (3 μM) is given as “C (Percent Degradation: C ≤ 35)”.

`CN(CCOCCOCCOCCNc1cccc2c1C(=O)N(C1CCC(=O)NC1=O)C2=O)C(=O)CCNc1nc(N2CCN(C(N)=O)CC2)c2cc(Cl)c(-c3cc(O)cc4ccccc34)c(F)c2n1` (stereo not drawn) [compound 34, 4-(6-chloro-2-((1-((2-(2,6-dioxopiperidin-3-yl)-1,3-dioxoisoindolin-4-yl)amino)-12-methyl-13-oxo-3,6,9-trioxa-12-azapentadecan-15-yl)amino)-8-fluoro-7-(3-hydroxynaphthalen-1-yl)quinazolin-4-yl)piperazine-1-carboxamide] showed a maximal degradation (Dmax) of at most 35%. Also, the “Percent Degradation at Indicated Concentration (μM)” value (0.3 μM) is on record as “C (Percent Degradation: C ≤ 35)”. Moreover, the “Percent Degradation at Indicated Concentration (μM)” value (1 μM) was “C (Percent Degradation: C ≤ 35)”. Besides, where the note is “3 μM”, the “Percent Degradation at Indicated Concentration (μM)” value is “C (Percent Degradation: C ≤ 35)”.

In the case of `CN(CCOCCOc1ccc2c(c1)CN(C1CCC(=O)NC1=O)C2=O)C(=O)CCNc1nc(N2CCN(C(N)=O)CC2)c2cc(Cl)c(-c3cc(O)cc4ccccc34)c(F)c2n1` (stereo not drawn) [compound 37, 4-(6-chloro-2-((3-((2-(2-((2-(2,6-dioxopiperidin-3-yl)-1-oxoisoindolin-5-yl)oxy)ethoxy)ethyl)(methyl)amino)-3-oxopropyl)amino)-8-fluoro-7-(3-hydroxynaphthalen-1-yl)quinazolin-4-yl)piperazine-1-carboxamide], the greatest degradation seen (Dmax) was at most 35%. For the same molecule, the “Percent Degradation at Indicated Concentration (μM)” value (0.3 μM) is given as “C (Percent Degradation: C ≤ 35)”. In addition, the “Percent Degradation at Indicated Concentration (μM)” value (1 μM) is on record as “C (Percent Degradation: C ≤ 35)”. The “Percent Degradation at Indicated Concentration (μM)” value (3 μM) is listed as “C (Percent Degradation: C ≤ 35)”.

For the molecule `CN(CCOCCOCCOCCOc1ccc2c(c1)CN(C1CCC(=O)NC1=O)C2=O)C(=O)CCNc1nc(N2CCN(C(N)=O)CC2)c2cc(Cl)c(-c3cc(O)cc4ccccc34)c(F)c2n1` (stereo not drawn) [compound 39, 4-(6-chloro-2-((1-((2-(2,6-dioxopiperidin-3-yl)-1-oxoisoindolin-5-yl)oxy)-12-methyl-13-oxo-3,6,9-trioxa-12-azapentadecan-15-yl)amino)-8-fluoro-7-(3-hydroxynaphthalen-1-yl)quinazolin-4-yl)piperazine-1-carboxamide], the Dmax was at most 35%. The “Percent Degradation at Indicated Concentration (μM)” value (0.3 μM) is on record as “C (Percent Degradation: C ≤ 35)”. Further, where the note is “1 μM”, the “Percent Degradation at Indicated Concentration (μM)” value is “C (Percent Degradation: C ≤ 35)”. The “Percent Degradation at Indicated Concentration (μM)” value (3 μM) was “C (Percent Degradation: C ≤ 35)”.

With `CCC(=O)N1CCN(c2nc(NCCC(=O)N(C)CCNc3cccc4c3C(=O)N(C3CCC(=O)NC3=O)C4=O)nc3c(F)c(-c4cc(O)cc5ccccc45)c(Cl)cc23)CC1` (stereo not drawn) [compound 41, 3-((6-chloro-8-fluoro-7-(3-hydroxynaphthalen-1-yl)-4-(4-propionylpiperazin-1-yl)quinazolin-2-yl)amino)-N-(2-((2-(2,6-dioxopiperidin-3-yl)-1,3-dioxoisoindolin-4-yl)amino)ethyl)-N-methylpropanamide], the “Percent Degradation at Indicated Concentration (μM): 0.3” value (shortened to “Percent Degradation … 0.3”) (H2030 cells, 0.3 μM) is given as “C (C ≤ 35)”. The “Percent Degradation at Indicated Concentration (μM): 1” value (“Percent Degradation … 1” for short) (H2030 cells, 1 μM) was “C (C ≤ 35)”. Further, where the note is “H2030 cells, 3 μM”, the “Percent Degradation at Indicated Concentration (μM): 3” value (from here on “Percent Degradation … (μM): 3”) is “C (C ≤ 35)”. This molecule also gave a Dmax (H2030 cells) of at most 35%.

As for `CCC(=O)N1CCN(c2nc(NCCC(=O)N(C)CCOCCNc3cccc4c3C(=O)N(C3CCC(=O)NC3=O)C4=O)nc3c(F)c(-c4cc(O)cc5ccccc45)c(Cl)cc23)CC1` (stereo not drawn) [compound 42, 3-((6-chloro-8-fluoro-7-(3-hydroxynaphthalen-1-yl)-4-(4-propionylpiperazin-1-yl)quinazolin-2-yl)amino)-N-(2-(2-((2-(2,6-dioxopiperidin-3-yl)-1,3-dioxoisoindolin-4-yl)amino)ethoxy)ethyl)-N-methylpropanamide], the “Percent Degradation … 0.3” value (H2030 cells, 0.3 μM) was “C (C ≤ 35)”. For the same molecule, for the setting “H2030 cells, 1 μM”, the “Percent Degradation … 1” value is listed as “C (C ≤ 35)”. Also, under “H2030 cells, 3 μM”, the “Percent Degradation … (μM): 3” value is “C (C ≤ 35)”. This molecule also registered a Dmax (H2030 cells) of at most 35%.

Regarding `CCC(=O)N1CCN(c2nc(NCCC(=O)N(C)CCOCCOCCNc3cccc4c3C(=O)N(C3CCC(=O)NC3=O)C4=O)nc3c(F)c(-c4cc(O)cc5ccccc45)c(Cl)cc23)CC1` (stereo not drawn) [compound 43, 3-((6-chloro-8-fluoro-7-(3-hydroxynaphthalen-1-yl)-4-(4-propionylpiperazin-1-yl)quinazolin-2-yl)amino)-N-(2-(2-(2-((2-(2,6-dioxopiperidin-3-yl)-1,3-dioxoisoindolin-4-yl)amino)ethoxy)ethoxy)ethyl)-N-methylpropanamide], the “Percent Degradation … 0.3” value (H2030 cells, 0.3 μM) is recorded as “C (C ≤ 35)”. For the setting “H2030 cells, 1 μM”, the “Percent Degradation … 1” value is “C (C ≤ 35)”. Moreover, under “H2030 cells, 3 μM”, the “Percent Degradation … (μM): 3” value is “C (C ≤ 35)”. This molecule came in with a maximal degradation (Dmax) (H2030 cells) of at most 35%.

Take `CCC(=O)N1CCN(c2nc(NCCC(=O)N(C)CCOCCOCCOCCNc3cccc4c3C(=O)N(C3CCC(=O)NC3=O)C4=O)nc3c(F)c(-c4cc(O)cc5ccccc45)c(Cl)cc23)CC1` (stereo not drawn) [compound 44]: the “Percent Degradation … 0.3” value (H2030 cells, 0.3 μM) is listed as “C (C ≤ 35)”. Further, the “Percent Degradation … 1” value (H2030 cells, 1 μM) is “C (C ≤ 35)”. Besides, where the note is “H2030 cells, 3 μM”, the “Percent Degradation … (μM): 3” value is “C (C ≤ 35)”. The greatest degradation seen (Dmax) (H2030 cells) was at most 35%.
